One may read the Kd as the free concentration of one partner at which half of the binding sites on the other are occupied at equilibrium, for simple one-to-one binding.

These results are taken from patent US20230203098A1, “HUMAN TRANSFERRIN RECEPTOR BINDING PEPTIDE” (priority 2020, published 2023).

Like-named read-outs stand apart in the source and are kept apart here. *1 amine or outer side, *2 acyl side, *3 side chain or, on linkers, in order; H or OH if unused. Where a SMILES comes first, the peptide text is derived from it. Bridges are numbered along the chain shown (N, C = ends). Side-chain parts run from the residue outwards. [ ]: non-standard residue; d: D form. The star is where a group is joined. X2 = O=C(O)c1cc(C(=O)*)ccc1-c1c2ccc(=O)cc-2oc2cc(O)ccc12; PEG12 = NCCOCCOCCOCCOCCOCCOCCOCCOCCOCCOCCOCCOCCC(=O)O; NMePhe(3-Cl) = CN[C@@H](Cc1cccc(Cl)c1)C(=O)O; NMeW = CN[C@@H](Cc1c[nH]c2ccccc12)C(=O)O; Phe(4-F) = N[C@@H](Cc1ccc(F)cc1)C(=O)O; NMeY = CN[C@@H](Cc1ccc(O)cc1)C(=O)O; NMeF = CN[C@@H](Cc1ccccc1)C(=O)O; Piperazinyl(4-Me) = CN1CCN(*)CC1; PEG4 = NCCOCCOCCOCCOCCC(=O)O; Nva = CCC[C@H](N)C(=O)O; Aib = CC(C)(N)C(=O)O; CO = O=C([*:1])[*:2]

The target in the assay is transferrin receptor (hTfR) (Homo sapiens, UniProt P02786). Kind of assay: Intermolecular interaction evaluation test between transferrin receptor (hTfR) and peptide by surface plasmon resonance (SPR). It is filed as binding. The method, boiled down: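 Receptor was Ni-captured and EDC/NHS-fixed on an NTA chip; running buffer HEPES pH 8.0 with NaCl, Tween 20, BSA and 1.0% DMSO.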

[1] abbreviates: surface plasmon resonance, peptide vs hTfR, read-out: KD value, hTfR binding by SPR (class symbol).
The mark [2] stands for this setting: binding to hTfR by SPR, Table 2 peptides, read-out: KD value (SPR) class.
Setting [3] is: SPR, peptides, linker-added peptides and FITC conjugates, Patent ID 203-230, read-out: KD.

transferrin receptor (hTfR), sequence (P02786 whole entry): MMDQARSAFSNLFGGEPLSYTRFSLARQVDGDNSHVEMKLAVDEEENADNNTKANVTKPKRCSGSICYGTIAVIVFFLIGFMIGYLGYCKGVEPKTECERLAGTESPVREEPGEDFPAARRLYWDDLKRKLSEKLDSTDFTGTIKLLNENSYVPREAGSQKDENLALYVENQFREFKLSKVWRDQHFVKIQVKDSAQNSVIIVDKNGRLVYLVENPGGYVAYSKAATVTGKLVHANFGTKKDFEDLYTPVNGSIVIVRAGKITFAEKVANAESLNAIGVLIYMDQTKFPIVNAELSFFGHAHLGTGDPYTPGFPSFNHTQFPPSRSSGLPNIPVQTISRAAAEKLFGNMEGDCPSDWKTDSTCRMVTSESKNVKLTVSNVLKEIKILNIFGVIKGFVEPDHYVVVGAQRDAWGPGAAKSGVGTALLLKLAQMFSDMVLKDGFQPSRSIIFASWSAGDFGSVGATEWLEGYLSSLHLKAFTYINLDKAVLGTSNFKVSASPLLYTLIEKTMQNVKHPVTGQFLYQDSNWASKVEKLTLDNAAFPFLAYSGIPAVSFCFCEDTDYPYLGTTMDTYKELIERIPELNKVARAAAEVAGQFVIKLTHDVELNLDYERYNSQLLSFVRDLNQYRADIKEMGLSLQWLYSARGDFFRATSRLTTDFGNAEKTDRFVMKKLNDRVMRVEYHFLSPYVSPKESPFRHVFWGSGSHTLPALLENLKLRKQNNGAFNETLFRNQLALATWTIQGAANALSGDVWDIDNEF

As for `CC[C@H](C)[C@@H]1NC(=O)[C@H](Cc2ccc(O)cc2)NC(=O)[C@H](Cc2ccc(O)cc2)NC(=O)[C@H](CC(N)=O)NC(=O)[C@H](Cc2c[nH]c3ccccc23)N(C)C(=O)[C@H](C(C)C)NC(=O)[C@H](Cc2ccccc2)N(C)C(=O)[C@H](C(C)C)NC(=O)[C@H](C)NC(=O)CSC[C@@H](C(N)=O)NC(=O)[C@H](Cc2ccc(O)cc2)N(C)C(=O)[C@H](Cc2ccc(O)cc2)NC(=O)[C@H](CCCNC(=N)N)NC(=O)[C@H](CCCNC(=N)N)NC(=O)[C@H]([C@@H](C)CC)NC1=O` [compound 299], under setting [1], the Kd lay in the range of 1 to 100 nM.

`CCC[C@@H]1NC(=O)[C@H]([C@@H](C)CC)NC(=O)[C@H](Cc2ccc(OC)cc2)NC(=O)[C@H](Cc2ccc(O)cc2)NC(=O)[C@H](CC(N)=O)NC(=O)[C@H](Cc2c[nH]c3ccccc23)N(C)C(=O)[C@H](C(C)C)NC(=O)[C@H](Cc2cccc(Cl)c2)N(C)C(=O)[C@H](C(C)C)NC(=O)[C@H](C)NC(=O)CSC[C@@H](C(=O)NCCOCCOCCOCCOCCC(N)=O)NC(=O)[C@H](Cc2ccc(O)cc2)N(C)C(=O)[C@H](Cc2ccccc2)NC(=O)[C@@H](CCCNC(=N)N)NC(=O)[C@H](CCCNC(=N)N)NC1=O` [compound 326] ({CH2CO}-AV[NMePhe(3-Cl)]V[NMeW]NYY(Me)I[Nva]R[dR]F[NMeY]C[PEG4]-NH2; thioether N-15): the Kd under setting [1] was in the range of 1 to 100 nM.

For the compound `CC[C@H](C)[C@@H]1NC(=O)[C@H](Cc2ccc(O)cc2)NC(=O)[C@H](Cc2ccc(O)cc2)NC(=O)[C@H](CC(N)=O)NC(=O)[C@H](Cc2c[nH]c3ccccc23)NC(=O)[C@H](C(C)C)NC(=O)[C@H](Cc2ccccc2)NC(=O)[C@H](C(C)C)NC(=O)[C@H](C)NC(=O)CSC[C@@H](C(N)=O)NC(=O)[C@H](Cc2ccc(O)cc2)N(C)C(=O)[C@H](CCC(=O)O)NC(=O)[C@H](CCCNC(=N)N)NC(=O)[C@H](CCCNC(=N)N)NC(=O)[C@H]([C@@H](C)CC)NC1=O` [compound 259], the Kd under setting [2] lay within 1 to 100 nM.

Consider `CC[C@H](C)[C@@H]1NC(=O)[C@H](Cc2ccc(O)cc2)NC(=O)[C@H](Cc2ccc(O)cc2)NC(=O)[C@H](CC(N)=O)NC(=O)[C@H](Cc2c[nH]c3ccccc23)NC(=O)[C@H](C(C)C)NC(=O)[C@H](Cc2ccccc2)N(C)C(=O)[C@H](C(C)C)NC(=O)[C@H](C)NC(=O)CSC[C@@H](C(=O)NCCOCCOCCOCCOCCC(N)=O)NC(=O)[C@H](Cc2ccc(O)cc2)N(C)C(=O)[C@H](Cc2ccc(O)cc2)NC(=O)[C@H](CCCCNC(=O)N2CCN(C)CC2)NC(=O)C(C)(C)NC(=O)[C@H]([C@@H](C)CC)NC1=O` [compound 290] ({CH2CO}-AV[NMeF]VWNYYII[Aib]K([CO-Piperazinyl(4-Me)])Y[NMeY]C[PEG4]-NH2; thioether N-15), for which the dissociation constant (Kd) under setting [2] is over 1000 nM.

`CC[C@H](C)[C@@H]1NC(=O)[C@H](Cc2ccc(OC)cc2)NC(=O)[C@H](Cc2ccc(O)cc2)NC(=O)[C@H](CC(N)=O)NC(=O)[C@H](Cc2c[nH]c3ccccc23)N(C)C(=O)[C@H](C(C)C)NC(=O)[C@H](Cc2cccc(Cl)c2)N(C)C(=O)[C@H](C(C)C)NC(=O)[C@H](C)NC(=O)CSC[C@@H](C(=O)NCC(=O)NCC(=O)NCC(=O)NCC(=O)N[C@@H](CO)C(=O)N[C@@H](CO)C(=O)N[C@@H](CS)C(N)=O)NC(=O)[C@H](Cc2ccc(O)cc2)N(C)C(=O)[C@H](Cc2ccccc2)NC(=O)[C@@H](CCCNC(=N)N)NC(=O)[C@H](CN)NC(=O)[C@H]([C@@H](C)CC)NC1=O` [compound 367] had a Kd of 1 to 100 nM.

Turning to `CC[C@H](C)[C@@H]1NC(=O)[C@H](Cc2ccc(O)cc2)NC(=O)[C@H](Cc2ccc(O)cc2)NC(=O)[C@H](CC(N)=O)NC(=O)[C@H](Cc2c[nH]c3ccccc23)NC(=O)[C@H](C(C)C)NC(=O)[C@H](Cc2ccccc2)NC(=O)[C@H](C(C)C)NC(=O)[C@H](C)NC(=O)CSC[C@@H](C(=O)NCCOCCOCCOCCOCCOCCOCCOCCOCCOCCOCCOCCOCCC(=O)N[C@@H](CCCCNC(=O)c2ccc(-c3c4ccc(=O)cc-4oc4cc(O)ccc34)c(C(=O)O)c2)C(N)=O)NC(=O)[C@H](CC(N)=O)NC(=O)[C@H](CCCNC(=N)N)NC(=O)[C@@H]2CCCN2C(=O)[C@H](C(C)C)NC1=O` [compound 212] ({CH2CO}-AVFVWNYYIVPRNC[PEG12]K(X2)-NH2; thioether N-14), under setting [3], the Kd was in the range of 1 to 100 nM.

For the compound `CC[C@H](C)[C@@H]1NC(=O)[C@H](Cc2ccc(O)cc2)NC(=O)[C@H](Cc2ccc(O)cc2)NC(=O)[C@H](CC(N)=O)NC(=O)[C@H](Cc2c[nH]c3ccccc23)NC(=O)[C@H](C(C)C)NC(=O)[C@H](Cc2ccccc2)N(C)C(=O)[C@H](C(C)C)NC(=O)[C@H](C)NC(=O)CSC[C@@H](C(N)=O)NC(=O)[C@H](Cc2ccc(O)cc2)N(C)C(=O)[C@H](Cc2ccc(O)cc2)NC(=O)[C@H](CCCNC(=N)N)NC(=O)[C@H](CCCCN)N(C)C(=O)[C@H]([C@@H](C)CC)NC1=O` [compound 292], under setting [1], the Kd fell in the range of 1 to 100 nM.

For `CC[C@H](C)[C@@H]1NC(=O)[C@H](Cc2ccc(OC)cc2)NC(=O)[C@H](Cc2ccc(O)cc2)NC(=O)[C@H](CC(N)=O)NC(=O)[C@H](Cc2c[nH]c3ccccc23)N(C)C(=O)[C@H](C(C)C)NC(=O)[C@H](Cc2cccc(Cl)c2)N(C)C(=O)[C@H](C(C)C)NC(=O)[C@H](C)N(C)C(=O)CSC[C@@H](C(N)=O)NC(=O)[C@H](Cc2ccc(O)cc2)N(C)C(=O)[C@H](Cc2ccccc2)NC(=O)[C@@H](C)NC(=O)[C@H](CCCNC(=N)N)NC(=O)[C@H]([C@@H](C)CC)NC1=O` [compound 216], under setting [3], the Kd was over 1000 nM.

Turning to `CC[C@H](C)[C@@H]1NC(=O)[C@H](Cc2ccc(F)cc2)NC(=O)[C@H](Cc2ccc(O)cc2)NC(=O)[C@H](CC(N)=O)NC(=O)[C@H](Cc2c[nH]c3ccccc23)N(C)C(=O)[C@H](C(C)C)NC(=O)[C@H](Cc2cccc(Cl)c2)N(C)C(=O)[C@H](C(C)C)NC(=O)[C@H](C)NC(=O)CSC[C@@H](C(N)=O)NC(=O)[C@H](Cc2ccc(O)cc2)N(C)C(=O)[C@H](Cc2ccccc2)NC(=O)[C@@H](CCCNC(=N)N)NC(=O)[C@H](CCCNC(=N)N)NC(=O)[C@H]([C@@H](C)CC)NC1=O` [compound 467] ({CH2CO}-AV[NMePhe(3-Cl)]V[NMeW]NY[Phe(4-F)]IIR[dR]F[NMeY]C-NH2; thioether N-15), for the setting “SPR, hTfR, class symbols A-D, read-out: KD”, the Kd lay within 1 to 100 nM.

`CC[C@H](C)[C@@H]1NC(=O)[C@H](Cc2ccc(O)cc2)NC(=O)[C@H](Cc2ccc(O)cc2)NC(=O)[C@H](CC(N)=O)NC(=O)[C@H](Cc2c[nH]c3ccccc23)NC(=O)[C@H](C(C)C)NC(=O)[C@H](Cc2ccccc2)NC(=O)[C@H](C(C)C)NC(=O)[C@H](C)NC(=O)CSC[C@@H](C(N)=O)NC(=O)[C@H](Cc2ccc(O)cc2)N(C)C(=O)[C@H](Cc2ccc(O)cc2)NC(=O)[C@H](C)NC(=O)[C@H](CCCNC(=N)N)NC(=O)[C@H]([C@@H](C)CC)NC1=O` [compound 256]: under setting [2], the Kd is 1 to 100 nM.

`CC[C@H](C)[C@@H]1NC(=O)[C@H](Cc2ccc(O)cc2)NC(=O)[C@H](Cc2ccc(O)cc2)NC(=O)[C@H](CC(N)=O)NC(=O)[C@H](Cc2c[nH]c3ccccc23)NC(=O)[C@H](C(C)C)NC(=O)[C@H](Cc2ccccc2)N(C)C(=O)[C@H](C(C)C)NC(=O)[C@H](C)NC(=O)CSC[C@@H](C(=O)NCCOCCOCCOCCOCCOCCOCCOCCOCCOCCOCCOCCOCCC(N)=O)NC(=O)[C@H](Cc2ccc(O)cc2)N(C)C(=O)[C@H](Cc2ccc(O)cc2)NC(=O)[C@H](CCCNC(=N)N)NC(=O)[C@H](CCCNC(=N)N)NC(=O)[C@H]([C@@H](C)CC)NC1=O` [compound 420]: the Kd (surface plasmon resonance, peptide vs hTfR, read-out: KD value for hTfR by SPR (class symbol)) was 1 to 100 nM.

Regarding `CC[C@H](C)[C@@H]1NC(=O)[C@H](Cc2ccc(O)cc2)NC(=O)[C@H](Cc2ccc(O)cc2)NC(=O)[C@H](CC(N)=O)NC(=O)[C@H](Cc2c[nH]c3ccccc23)NC(=O)[C@H](C(C)C)NC(=O)[C@H](Cc2ccccc2)NC(=O)[C@H](C(C)C)NC(=O)[C@H](C)NC(=O)CSC[C@@H](C(=O)NCCOCCOCCOCCOCCC(=O)N[C@@H](CNC(=O)c2ccc(-c3c4ccc(=O)cc-4oc4cc(O)ccc34)c(C(=O)O)c2)C(N)=O)NC(=O)[C@H](Cc2ccc(O)cc2)N(C)C(=O)[C@H](Cc2ccc(O)cc2)NC(=O)[C@H](CCCNC(=N)N)NC(=O)[C@H](CCCNC(=N)N)NC(=O)[C@H]([C@@H](C)CC)NC1=O` [compound 159], where the note is “SPR, linker and payload (FITC, VivoTag) conjugates, read-out: KD”, the Kd is 1 to 100 nM.

In the case of `CC[C@H](C)[C@@H]1NC(=O)[C@H](Cc2ccc(OC)cc2)NC(=O)[C@H](Cc2ccc(O)cc2)NC(=O)[C@H](CC(N)=O)NC(=O)[C@H](Cc2c[nH]c3ccccc23)N(C)C(=O)[C@H](C(C)C)NC(=O)[C@H](Cc2cccc(Cl)c2)N(C)C(=O)[C@H](C(C)C)NC(=O)[C@H](C)NC(=O)CSC[C@@H](C(=O)NCC(=O)N[C@@H](CCCCN=[N+]=[N-])C(N)=O)NC(=O)[C@H](Cc2ccc(O)cc2)N(C)C(=O)[C@H](Cc2ccccc2)NC(=O)[C@@H](CCCNC(=N)N)NC(=O)[C@H](CCCNC(=N)N)NC(=O)[C@H](CCC(=O)O)NC1=O` [compound 340], the Kd under setting [1] is 1 to 100 nM.

Regarding `CC[C@H](C)[C@@H]1NC(=O)[C@H](Cc2ccc(O)cc2)NC(=O)[C@H](Cc2ccc(O)cc2)NC(=O)[C@H](CC(N)=O)NC(=O)[C@H](Cc2c[nH]c3ccccc23)NC(=O)[C@H](C(C)C)NC(=O)[C@H](Cc2ccccc2)NC(=O)[C@H](C(C)C)NC(=O)[C@H](C)NC(=O)CSC[C@@H](C(N)=O)NC(=O)[C@H](Cc2ccc(O)cc2)N(C)C(=O)[C@H](Cc2ccc(O)cc2)NC(=O)[C@H](CCCNC(=N)N)NC(=O)[C@H](C)NC(=O)[C@H]([C@@H](C)CC)NC1=O` [compound 253], under setting [2], the equilibrium dissociation constant (Kd) lay in the range of 1 to 100 nM.

Regarding `CC[C@H](C)[C@@H]1NC(=O)[C@H](Cc2ccc(O)cc2)NC(=O)[C@H](Cc2ccc(O)cc2)NC(=O)[C@H](CC(N)=O)NC(=O)[C@H](Cc2c[nH]c3ccccc23)N(C)C(=O)[C@H](C(C)C)NC(=O)[C@H](Cc2ccccc2)NC(=O)[C@H](C(C)C)NC(=O)[C@H](C)NC(=O)CSC[C@@H](C(N)=O)NC(=O)[C@H](Cc2ccc(O)cc2)N(C)C(=O)[C@H](Cc2ccc(O)cc2)NC(=O)[C@H](CCCNC(=N)N)NC(=O)[C@H](CCCNC(=N)N)NC(=O)[C@H]([C@@H](C)CC)NC1=O` [compound 263], under setting [2], the Kd was under 1 nM.
